Reference: paper PMC12723682, “Ligand-Directed Self-Assembling Chimeras for Targeted Protein O‑GlcNAcylation” (ACS Chemical Biology, 2025)

Legend:
[1] = molecular target: T1, O-GlcNAc transferase (OGT) (Homo sapiens, UniProt O15294); assay: SPR steady-state affinity on immobilized OGT; also in-gel covalent labelling of purified OGT, competed by OSMI-4; format: binding
T1 sequence (O15294 2-1046): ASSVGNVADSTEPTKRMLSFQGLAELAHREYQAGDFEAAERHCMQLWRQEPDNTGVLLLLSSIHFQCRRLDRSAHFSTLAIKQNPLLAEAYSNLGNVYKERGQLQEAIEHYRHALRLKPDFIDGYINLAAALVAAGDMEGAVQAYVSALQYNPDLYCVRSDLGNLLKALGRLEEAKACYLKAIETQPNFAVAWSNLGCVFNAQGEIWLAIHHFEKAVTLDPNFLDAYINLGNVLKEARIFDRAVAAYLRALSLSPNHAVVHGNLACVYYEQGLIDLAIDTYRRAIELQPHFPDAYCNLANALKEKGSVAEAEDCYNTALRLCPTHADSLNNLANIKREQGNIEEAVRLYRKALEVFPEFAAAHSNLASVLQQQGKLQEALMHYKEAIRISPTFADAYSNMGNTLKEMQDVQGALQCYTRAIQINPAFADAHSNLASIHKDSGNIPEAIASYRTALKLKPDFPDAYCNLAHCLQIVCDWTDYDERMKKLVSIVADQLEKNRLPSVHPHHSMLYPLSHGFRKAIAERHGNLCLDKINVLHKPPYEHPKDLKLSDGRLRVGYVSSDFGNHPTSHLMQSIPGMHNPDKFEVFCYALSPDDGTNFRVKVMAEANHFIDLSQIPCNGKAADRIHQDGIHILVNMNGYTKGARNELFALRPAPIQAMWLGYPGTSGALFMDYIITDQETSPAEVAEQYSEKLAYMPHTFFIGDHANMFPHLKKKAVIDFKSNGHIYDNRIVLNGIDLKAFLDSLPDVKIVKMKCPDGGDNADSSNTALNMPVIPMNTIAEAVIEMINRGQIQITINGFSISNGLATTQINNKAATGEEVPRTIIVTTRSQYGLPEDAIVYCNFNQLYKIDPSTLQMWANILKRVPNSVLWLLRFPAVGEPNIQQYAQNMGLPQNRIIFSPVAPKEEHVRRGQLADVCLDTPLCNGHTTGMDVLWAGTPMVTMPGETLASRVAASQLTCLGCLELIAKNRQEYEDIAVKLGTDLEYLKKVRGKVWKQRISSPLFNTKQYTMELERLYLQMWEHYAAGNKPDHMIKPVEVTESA

[2] = molecular target: T1, O-GlcNAc transferase (OGT); assay: SPR, confirmed by MST; also in-gel covalent labelling of purified OGT, competed by OSMI-4; format: binding

Row | SMILES | Kd [1] | Kd [2]
1 | C#CCCCCC(=O)N(CC#N)S(=O)(=O)c1cc2ccc(=O)[nH]c2cc1Cl [7a] | 2 µM | –
2 | C#CCCCCC(=O)N(CC#N)S(=O)(=O)c1ccc2[nH]c(=O)ccc2c1 [8a] | – | 28.3 µM
